Measurements as given in patent US20100055093A1, “PAN-CELL SURFACE RECEPTOR-SPECIFIC THERAPEUTICS” (RECEPTOR BIOLOGIX INC., priority 2006, published 2010).
“Also recorded” adds a separate entry of the source. Marks after values point to notes of the source that are not given here. One block for each molecule: values may come before it.

Columns and labels:
[1] = system: heregulin (HRG); assay: 125I-HRG binding with BS3 cross-linking and SDS-PAGE; conditions: for binding of 125I-HRG: 5 nM 125I-HRG, BS3 cross-linking, SDS-PAGE
Protocol: 1 mM of the BS3 crosslinker was added at the end of the binding assay to cross-link the bound molecules. Binding reactions were separated on an SDS-PAGE gel.
(§1) Western blots were probed with anti-His antibody to compare protein levels.

[2] = target: EGF (Homo sapiens, UniProt P01133); assay: 125I-EGF binding with BS3 cross-linking and SDS-PAGE; conditions: supernatant of transfected 293T cells, 5 nM 125I-EGF, BS3 cross-linking, SDS-PAGE
Protocol: BS^3, a chemical crosslinker (Pierce) was added at the end of the binding assay to cross-link the bound molecules. Samples were separated on an SDS-PAGE gel and exposed to a film for detection.
as §1

[3] = target: T1, HER3 (Homo sapiens, UniProt P21860); assay: ELISA-based HER receptor phosphorylation assay, HER3; format: cell-based; conditions: HRG; for maximal inhibition of HER3 phosphorylation: 600 nM protein; for IC50: read-out: IC50, inhibition of HER3 phosphorylation
T1 construct: endogenous in cells
Protocol: (§2) Phosphorylation of HER receptors was assessed in an ELISA-based HER Receptor phosphorylation assay. Various cells (A431, MCF7, SK-BR3, SK-OV3, MCF7/HER2) were serum-starved in serum free medium for about 24 hr.
(§3) Cells were lysed on ice for 15 min and cell lysate were applied to a 96-well plate pre-coated with the respective receptor-specific capture antibodies (antibodies were purchased from R & D System) by manufacture recommended concentrations (0.4 to 4 ug/ml) and condition (in PBS, room temperature, overnight). Cell lysates were incubated with the capture Ab plate for 3 hrs at room temperature. Plates were washed 3× with PBST buffer. Anti-phosphotyrosine antibody clone 4G10 HRP-conjugated (Upstate) were diluted at 1:1000 in 1% of BSA.PBS and added to the plates, 100 μl/well for 1 hr to detect specifically HER receptors phosphorylated on tyrosine. After 3× PBST wash, the plates were developed by adding 100 μl of substrate solution (TMB, Sigma) and stopped by 50 μl of SDS stop solution. The optical density was determined by microplate reader at 650 nm (Molecular Devices, VERSAmax).

[4] = target: T2, HER2 (Homo sapiens, UniProt P04626); assay: ELISA-based HER receptor phosphorylation assay, HER2; format: cell-based; conditions: MCF7/HER2 cells, HRG, 600 nM protein
T2 construct: endogenous in cells
Protocol: as §2, §3

[5] = system: MCF7 cells; assay: Ligand-stimulated cell proliferation, Alamar Blue; format: cell-based; conditions: MCF7 stimulated by HRGβ, at 1 μm
Protocol: Cell lines MCF7, ZR75-1, ME180 were purchased from ATCC and kept in 10% of FBS DMEM. Cells were seeded at 2000 per well in 96-well plate in 1% FBS supplemented DMEM. After 2-3 hr of seeding, increasing concentrations of candidate HER ECD derivatives were added to the culture in the present of ligands (EGF or HRGβ). Cells were incubated at 37° C. for about 72 hr. Cells relative density were measured by Alamar Blue method. Alamar Blue (Sigma) was prepared in PBS at concentration of 4 uM, added to the microplate at 1/10 volume of culture medium (final concentration 0.4 uM) and plates returned to the incubator. Fluorescence was read at Ex.=530 nm/Em.=590 nm after 2-4 hours at 37° C.

[6] = system: A431 s.c. tumor; assay: Therapeutic evaluation in A431 s.c. human tumor xenograft model; format: in vivo, nude mice
Protocol: Mice were obtained from the commercial suppliers (Harlan, UK). The mice were 4-6 weeks old at the start of the study. […] The room was air-conditioned by a system designed to maintain an air temperature range of 23±2° C. Mice were housed in groups of 2 or 5 during the procedure in plastic cages (Techniplast UK) with irradiated bedding and provided with both nesting materials and environmental enrichment. […] Tumor dimensions were recorded (calliper measurement of length and width and tumor cross-sectional area and volume calculated) three times weekly and body weight measured weekly. Each mouse remained in the study until terminated, or until necessitate removal of that mouse from the study. Animals were terminated if the tumor size becomes excessive or any adverse effects are noted. At termination the mice were anaesthetized (Hypnorm/Hynovel) and 1 ml blood removed by cardiac puncture, processed for plasma, frozen for both the pilot and therapeutic study. The mice were then terminated by an approved S1 method. For the therapeutic study, the tumors were excised, weighed, measured and fixed in formalin. Body weight data, tumor growth and final tumor weight were recorded and reported in spreadsheet and graphical format. Statistical analysis was performed if appropriate using Minitab. […] An extra group for the therapeutic study was added by PRECOS as below. Group 9: 30 mg/kg human IgG i.p. 3 times weekly. Iressa was prepared by PRECOS in 10% DMSO & 5% Cremaphor in PBS. Tumors were initiated with 2×10^6 cells per mouse for the therapeutic study.

[7] = system: A431 tumor bearing mice; assay: Pilot toxicity study in A431 tumor bearing mice; format: in vivo, nude mice
Protocol: Mice were obtained from the commercial suppliers (Harlan, UK). The mice were 4-6 weeks old at the start of the study. […] The room was air-conditioned by a system designed to maintain an air temperature range of 23±2° C. Mice were housed in groups of 2 or 5 during the procedure in plastic cages (Techniplast UK) with irradiated bedding and provided with both nesting materials and environmental enrichment.
Cells were injected subcutaneously into mice at 1×10^7 cells in a volume of 100 μl.
For the pilot toxicity study, mice were allocated to their treatment groups and treatment began on day 5 for 2 weeks in a dosing volume of 150 μl per injection. […] Tumor dimensions were recorded (calliper measurement of length and width and tumor cross-sectional area and volume calculated) three times weekly and body weight measured weekly.
Each mouse remained in the study until terminated, or until necessitate removal of that mouse from the study. Animals were terminated if the tumor size becomes excessive or any adverse effects are noted. At termination the mice were anaesthetized (Hypnorm/Hynovel) and ˜1 ml blood removed by cardiac puncture, processed for plasma, frozen for both the pilot and therapeutic study. The mice were then terminated by an approved S1 method.
Pilot toxicity study was terminated after 12 days of dosing in order to collect plasma samples 3 hours after dosing. […]

[8] = target: the molecule itself; assay: self-association by size exclusion chromatography (apparent over calculated molecular weight)
Protocol: This methodology permits simplified analysis of the ability of receptor ectodomains to associate as either homodimers or heterodimers. To perform molecular size exlusion analysis, eluted molecules were compared to reference standards. […] Smaller volumes elute in the retained volume of the column, while larger molecules elute in smaller volumes according to their increasing molecular mass.
Molecular size exclusion analysis was performed using a A TSK3000 size exclusion column (Tosoh Bioscience, Montgomeryville, Pa.) equilibrated with PBS at a flow rate of 0.7 ml/min. Gel filtration standards (BioRad, Hercules, Calif.) were used to calibrate the column. Their elution volumes and molecular weights were plotted. Elution volumes were determined for each unknown by injection of 30 μg of each molecule in PBS and their apparent molecular weights calculated. Flow was maintained over the column between injections. Molecular weights were determined using a Standard curve for molecular weight standards.

[9] = target: T3, neuregulin-1 beta 1 (NRG1β1) (human, UniProt Q02297-6 177-241, limits assumed); assay: 125I-HRG (5 nM) cross-linking (BS3), normalised by anti-HER3 Western blot densitometry
T3 construct: also called HRG; heregulin
T3 sequence (looked up): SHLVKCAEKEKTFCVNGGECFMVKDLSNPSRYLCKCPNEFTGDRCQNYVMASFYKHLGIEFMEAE
Protocol: 1 mM of the BS₃ crosslinker was added at the end of the binding assay to cross-link the bound molecules. Binding reactions were separated on an SDS-PAGE gel. The protein gel was dried and exposed to a film for 2 and 6 hours.

[10] = Group 5, 38 mg/kg Iressa, group mean
[11] = Group 6, 75 mg/kg Iressa, group mean

EGF, sequence (P01133 971-1023 limits assumed): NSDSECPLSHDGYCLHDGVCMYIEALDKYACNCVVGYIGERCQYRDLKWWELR

Molecule: HFD200: full-length HER2 ECD fused to Fc, SEQ ID NO:42
binding of 125I-EGF [2]: did not show any detectable | binding of 125I-EGF ([2]; listed as HER2-650/Fc): no binding | binding of 125I-HRG [1]: did not show any detectable

Molecule: HFD400: full-length HER4 ECD fused to Fc, SEQ ID NO:48
binding of 125I-EGF [2]: no binding | binding of 125I-HRG [1]: bound | binding of 125I-HRG ([1]; listed as HER4-650/Fc): binds

Molecule: HF300T: full-length HER3 ECD, residues 1-621, SEQ ID NO:26
maximal inhibition of HER3 phosphorylation ([3]; MCF7 cells): about 38% | IC50 ([3]; MCF7 cells): 48 nM | maximal inhibition of HER3 phosphorylation ([3]; SK-BR3 cells): about 55% | binding of HRG as compared to the other derivatives tested ([1]; normalized by anti-HER3 Western blot densitometry): about 10%

Molecule: COc1cc2ncnc(Nc3ccc(F)c(Cl)c3)c2cc1OCCCN1CCOCC1 [Iressa, Gefitinib]
tumor growth rate in comparison to the vehicle group ([6]; 38 mg/kg Iressa (Group 5)): did not | reduction of final tumor weight ([6]; 75 mg/kg Iressa (Group 6)): 69% | tumor growth rate in comparison to the vehicle group ([6]; 75 mg/kg Iressa i.p. days 1-5 cycled weekly (Group 6)): significantly decreased | Tumor volume (mm^3) Day 7 [6, 10]: 51.2 mm^3 | Tumor volume (mm^3) Day 10 [6, 10]: 79.4 mm^3 | Tumor volume (mm^3) Day 12 [6, 10]: 108.8 mm^3 | Tumor volume (mm^3) Day 14 [6, 10]: 152.6 mm^3 | Tumor volume (mm^3) Day 17 [6, 10]: 220.6 mm^3 | Tumor volume (mm^3) Day 19 [6, 10]: 259.6 mm^3 | Tumor volume (mm^3) Day 21 [6, 10]: 396.9 mm^3 | Tumor volume (mm^3) Day 24 [6, 10]: 477.0 mm^3 | Tumor volume (mm^3) Day 25 [6, 10]: 491.1 mm^3 | Tumor volume (mm^3) Day 26 [6, 10]: 510.1 mm^3 | Tumor weight ([6]; Group 5, 38 mg/kg Iressa, final tumor weight, group mean): 0.267 g | Tumor volume (mm^3) Day 7 [6, 11]: 48.6 mm^3 | Tumor volume (mm^3) Day 10 [6, 11]: 72.5 mm^3 | Tumor volume (mm^3) Day 12 [6, 11]: 87.1 mm^3 | Tumor volume (mm^3) Day 14 [6, 11]: 104.3 mm^3 | Tumor volume (mm^3) Day 17 [6, 11]: 123.1 mm^3 | Tumor volume (mm^3) Day 19 [6, 11]: 112.1# mm^3 | Tumor volume (mm^3) Day 21 [6, 11]: 150.1# mm^3 | Tumor volume (mm^3) Day 24 [6, 11]: 180.5# mm^3 | Tumor volume (mm^3) Day 25 [6, 11]: 178.6# mm^3 | Tumor volume (mm^3) Day 26 [6, 11]: 181.9# mm^3 | Tumor weight (g) ([6]; Group 6, 75 mg/kg Iressa, final tumor weight, group mean): 0.095# g | tumor size prior to termination ([7]; Iressa treatment groups (groups 2 and 3)): inhibition of tumor size | adverse effects ([7]; i.p., 30 mg/kg RB200h, 75 mg/kg IRESSA, or 10 mg/kg RB200h with 38 mg/kg IRESSA, 12 days of dosing): No adverse effects

B1: HER3-621, full-length HER3 ECD (receptor)
chain: SEVGNSQAVCPGTLNGLSVTGDAENQYQTLYKLYERCEVVMGNLEIVLTGHNADLSFLQWIREVTGYVLVAMNEFSTLPLPNLRVVRGTQVYDGKFAIFVMLNYNTNSSHALRQLRLTQLTEILSGGVYIEKNDKLCHMDTIDWRDIVRDRDAEIVVKDNGRSCPPCHEVCKGRCWGPGSEDCQTLTKTICAPQCNGHCFGPNPNQCCHDECAGGCSGPQDTDCFACRHFNDSGACVPRCPQPLVYNKLTFQLEPNPHTKYQYGGVCVASCPHNFVVDQTSCVRACPPDKMEVDKNGLKMCEPCGGLCPKACEGTGSGSRFQTVDSSNIDGFVNCTKILGNLDFLITGLNGDPWHKIPALDPEKLNVFRTVREITGYLNIQSWPPHMHNFSVFSNLTTIGGRSLYNRGFSLLIMKNLNVTSLGFRSLKEISAGRIYISANRQLCYHHSLNWTKVLRGPTEERLDIKHNRPRRDCVAEGKVCDPLCSSGGCWGPGPGQCLSCRNYSRGGVCVTHCNFLNGEPREFAHEAECFSCHPECQPMGGTATCNGSGSDTCAQCAHFRDGPHCVSSCPHGVLGAKGPIYKYPDVQNECRPCHENCTQGCKGPELQDCLGQTLVLIGKTLESRGPFEQKLISEEDLNMHTGHHHHHH
notes: also called HF300; HF300T
M. Wt. (ap):M. Wt. [8]: 2.66 | binding relative to the other derivatives tested [9]: ~10%

B2: HF410T (HER4-485) (receptor)
chain: QSVCAGTENKLSSLSDLEQQYRALRKYYENCEVVMGNLEITSIEHNRDLSFLRSVREVTGYVLVALNQFRYLPLENLRIIRGTKLYEDRYALAIFLNYRKDGNFGLQELGLKNLTEILNGGVYVDQNKFLCYADTIHWQDIVRNPWPSNLTLVSTNGSSGCGRCHKSCTGRCWGPTENHCQTLTRTVCAEQCDGRCYGPYVSDCCHRECAGGCSGPKDTDCFACMNFNDSGACVTQCPQTFVYNPTTFQLEHNFNAKYTYGAFCVKKCPHNFVVDSSSCVRACPSSKMEVEENGIKMCKPCTDICPKACDGIGTGSLMSAQTVDSSNIDKFINCTKINGNLIFLVTGIHGDPYNAIEAIDPEKLNVFRTVREITGFLNIQSWPPNMTDFSVFSNLVTIGGRVLYSGLSLLILKQQGITSLQFQSLKEISAGNIYITDNSNLCYYHTINWTTLFSTINQRILESRGPFEQKLISEEDLNMHTGHHHHHH
M. Wt. (ap):M. Wt. [8]: 1.98

Now from value to molecule, other results behind:

binding of 125I-HRG [1]: equivalent binding; also recorded: bound | binding of 125I-HRG ([1]; listed as HER3-621/Fc): binds
Molecule: HFD300: full-length HER3 ECD (1-621) fused to Fc, SEQ ID NO:46; homodimer

binding of 125I-HRG [1]: equivalent binding
Molecule: HFD310: truncated HER3 ECD (1-500) fused to Fc, SEQ ID NO:44

maximal inhibition of HER3 phosphorylation ([3]; MCF7/HER2 cells): about 35% | maximal inhibition of HER2 phosphorylation [4]: about 35%
Molecule: HF220T: truncated HER2 ECD, residues 1-508, SEQ ID NO:14

maximal inhibition of HER3 phosphorylation ([3]; MCF7 cells): about 78% | IC50 ([3]; MCF7 cells): 39 nM | maximal inhibition of HER3 phosphorylation ([3]; SK-BR3 cells): about 75% | binding of 125I-HRG [1]: equivalent binding
Molecule: HF310T: truncated HER3 ECD, residues 1-500, SEQ ID NO:20
inhibition of proliferation [5]: about 95%

maximal inhibition of HER3 phosphorylation ([3]; MCF7/HER2 cells): about 55% | maximal inhibition of HER2 phosphorylation [4]: about 55%
Molecule: HF210T: truncated HER2 ECD, residues 1-573, SEQ ID NO:16
